One experiment has as its target T1, human GcgR (Homo sapiens, UniProt P47871).
T1 construct: expressed in transfected cells; crude membranes
In words: [125I]-Glucagon binding, SPA with WGA beads, 0.1% bacitracin. The settings on record: geometric mean, read-out: hGcgR Ki. The procedure, abridged: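 SPA competition binding with WGA beads on crude membranes from HEK293 cells stably expressing hGcgR. Buffer: 25 mM HEPES pH 7.4, 2.5 mM CaCl2, 1 mM MgCl2, 0.1% bacitracin, 0.003% Tween-20; 10-point 3-fold dilutions, NSB with 1 μM Gcg.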

A further experiment concerns the target T2, human GIPR (Homo sapiens, UniProt P48546).
T2 construct: expressed in transfected cells; crude membranes
T2 sequence (P48546 22-466): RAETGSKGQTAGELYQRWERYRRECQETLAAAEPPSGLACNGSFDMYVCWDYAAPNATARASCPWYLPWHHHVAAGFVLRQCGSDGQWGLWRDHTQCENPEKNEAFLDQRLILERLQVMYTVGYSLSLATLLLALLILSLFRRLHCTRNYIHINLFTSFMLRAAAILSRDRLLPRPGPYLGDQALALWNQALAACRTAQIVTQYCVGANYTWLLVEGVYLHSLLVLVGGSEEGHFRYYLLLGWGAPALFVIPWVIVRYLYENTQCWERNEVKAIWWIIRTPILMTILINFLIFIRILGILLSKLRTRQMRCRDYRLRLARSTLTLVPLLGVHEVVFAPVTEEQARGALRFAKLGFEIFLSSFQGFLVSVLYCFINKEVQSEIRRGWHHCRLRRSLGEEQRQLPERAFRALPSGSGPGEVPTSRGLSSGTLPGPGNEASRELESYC
In words: [125I]-GIP binding, SPA with WGA beads, 0.1% bacitracin. The settings on record: geometric mean, read-out: hGIPR Ki. The procedure, abridged: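 Ki values are geometric means (SEM, n independent days), derived from four-parameter nonlinear regression of IC50. Membranes came from hGIPR-expressing CHO cells.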

As a reminder, the pKi is the Ki on a negative log10 scale, so that one unit is a factor of ten.

pKi: −log10 of the molar value. *1 amine or outer side, *2 acyl side, *3 side chain or, on linkers, in order; H or OH if unused. Where a SMILES comes first, the peptide text is derived from it. Side-chain parts run from the residue outwards. [ ]: non-standard residue; d: D form. The star is where a group is joined. C20 diacid = O=C(O)CCCCCCCCCCCCCCCCCCC(=O)*; C18 diacid = O=C(O)CCCCCCCCCCCCCCCCC(=O)*; γGlu = O=C(O)[C@H](CCC(=O)[*:2])N[*:1]; 4Pal = N[C@@H](Cc1ccncc1)C(=O)O; αMeL = CC(C)C[C@](C)(N)C(=O)O; Iva = CC[C@](C)(N)C(=O)O; Orn = NCCC[C@H](N)C(=O)O; AEEA = NCCOCCOCC(=O)O; Aib = CC(C)(N)C(=O)O

T1 sequence (P47871 26-477): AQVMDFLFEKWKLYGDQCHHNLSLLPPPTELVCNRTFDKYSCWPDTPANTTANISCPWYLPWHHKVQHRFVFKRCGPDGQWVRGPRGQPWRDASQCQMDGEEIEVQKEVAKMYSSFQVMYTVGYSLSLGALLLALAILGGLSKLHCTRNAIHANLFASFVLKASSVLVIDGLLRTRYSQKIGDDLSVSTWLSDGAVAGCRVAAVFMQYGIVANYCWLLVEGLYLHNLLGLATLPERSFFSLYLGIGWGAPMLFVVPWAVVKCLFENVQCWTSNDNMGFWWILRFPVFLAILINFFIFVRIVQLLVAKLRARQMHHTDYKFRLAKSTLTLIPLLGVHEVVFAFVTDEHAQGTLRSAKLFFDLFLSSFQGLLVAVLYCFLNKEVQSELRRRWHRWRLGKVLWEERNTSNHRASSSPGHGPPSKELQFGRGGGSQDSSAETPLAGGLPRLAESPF

As for `CC[C@H](C)[C@H](NC(=O)[C@H](Cc1ccccc1)NC(=O)[C@@H](NC(=O)CNC(=O)[C@H](CCC(=O)O)NC(=O)C(C)(C)NC(=O)[C@@H](N)Cc1ccc(O)cc1)[C@@H](C)O)C(=O)N[C@@H](CO)C(=O)N[C@@H](CC(=O)O)C(=O)N[C@@H](Cc1ccc(O)cc1)C(=O)N[C@@H](CO)C(=O)N[C@H](C(=O)N[C@@](C)(CC(C)C)C(=O)N[C@@H](CC(C)C)C(=O)N[C@@H](CC(=O)O)C(=O)N[C@@H](CCC(=O)O)C(=O)N[C@@H](CCCCNC(=O)COCCOCCNC(=O)COCCOCCNC(=O)CC[C@H](NC(=O)CCCCCCCCCCCCCCCCCCC(=O)O)C(=O)O)C(=O)N[C@@H](Cc1c[nH]cn1)C(=O)N[C@@H](CCC(N)=O)C(=O)NC(C)(C)C(=O)N[C@@H](CC(=O)O)C(=O)N[C@@H](Cc1ccccc1)C(=O)N[C@H](C(=O)N[C@@H](CCC(=O)O)C(=O)N[C@@H](Cc1ccncc1)C(=O)N[C@@H](CC(C)C)C(=O)N[C@@H](CC(C)C)C(=O)N[C@@H](C)C(=O)N[C@@H](C)C(=O)NCC(=O)N1CCC[C@H]1C(=O)N[C@@H](CO)C(=O)N[C@@H](CO)C(=O)NCC(=O)N[C@@H](C)C(=O)N1CCC[C@H]1C(=O)N1CCC[C@H]1C(=O)N1CCC[C@H]1C(=O)N[C@@H](CO)C(N)=O)C(C)C)[C@@H](C)CC` [Example 85], the figures for the pKi at human GcgR and on human GIPR were 6.10 and 10.28, respectively.
Turning to `CC[C@H](C)[C@H](NC(=O)[C@H](Cc1ccccc1)NC(=O)[C@@H](NC(=O)CNC(=O)[C@H](CCC(=O)O)NC(=O)C(C)(C)NC(=O)[C@@H](N)Cc1ccc(O)cc1)[C@@H](C)O)C(=O)N[C@@H](CO)C(=O)N[C@@H](CC(=O)O)C(=O)N[C@@H](Cc1ccc(O)cc1)C(=O)N[C@@H](CO)C(=O)N[C@H](C(=O)N[C@@](C)(CC(C)C)C(=O)N[C@@H](CC(C)C)C(=O)N[C@@H](CC(=O)O)C(=O)N[C@@H](CCC(=O)O)C(=O)N[C@@H](CCCCNC(=O)COCCOCCNC(=O)COCCOCCNC(=O)CC[C@H](NC(=O)CCCCCCCCCCCCCCCCCCC(=O)O)C(=O)O)C(=O)N[C@@H](Cc1c[nH]cn1)C(=O)N[C@@H](CCC(N)=O)C(=O)NC(C)(C)C(=O)N[C@@H](CC(=O)O)C(=O)N[C@@H](Cc1ccccc1)C(=O)N[C@H](C(=O)N[C@@H](CCC(=O)O)C(=O)N[C@@H](Cc1ccncc1)C(=O)N[C@@H](CC(C)C)C(=O)N[C@@H](CC(C)C)C(=O)N[C@@H](C)C(=O)NCC(=O)NCC(=O)N1CCC[C@H]1C(=O)N[C@@H](CO)C(=O)N[C@@H](CO)C(=O)NCC(=O)N[C@@H](C)C(=O)N1CCC[C@H]1C(=O)N1CCC[C@H]1C(=O)N1CCC[C@H]1C(=O)N[C@@H](CO)C(N)=O)C(C)C)[C@@H](C)CC` [Example 86], the negative-log Ki (pKi) at human GcgR was 6.34; on human GIPR, 10.27.
Taken in the same sequence, the figures for `CC[C@H](C)[C@H](NC(=O)[C@H](Cc1ccccc1)NC(=O)[C@@H](NC(=O)CNC(=O)[C@H](CCC(=O)O)NC(=O)C(C)(C)NC(=O)[C@@H](N)Cc1ccc(O)cc1)[C@@H](C)O)C(=O)N[C@@H](CO)C(=O)N[C@@H](CC(=O)O)C(=O)N[C@@H](Cc1ccc(O)cc1)C(=O)N[C@@H](CO)C(=O)N[C@H](C(=O)N[C@@](C)(CC(C)C)C(=O)N[C@@H](CC(C)C)C(=O)N[C@@H](CC(=O)O)C(=O)N[C@@H](CCCN)C(=O)N[C@@H](CCCCNC(=O)COCCOCCNC(=O)COCCOCCNC(=O)CC[C@H](NC(=O)CCCCCCCCCCCCCCCCC(=O)O)C(=O)O)C(=O)N[C@@H](Cc1c[nH]cn1)C(=O)N[C@@H](CCC(N)=O)C(=O)NC(C)(C)C(=O)N[C@@H](CC(=O)O)C(=O)N[C@@H](Cc1ccccc1)C(=O)N[C@H](C(=O)N[C@@H](CCC(=O)O)C(=O)N[C@@H](Cc1ccncc1)C(=O)N[C@@H](CC(C)C)C(=O)N[C@@H](CC(C)C)C(=O)N[C@@H](CCC(=O)O)C(=O)N[C@@H](C)C(=O)NCC(=O)N1CCC[C@H]1C(=O)N[C@@H](CO)C(=O)N[C@@H](CO)C(=O)NCC(=O)N[C@@H](C)C(=O)N1CCC[C@H]1C(=O)N1CCC[C@H]1C(=O)N1CCC[C@H]1C(=O)N[C@@H](CO)C(N)=O)C(C)C)[C@@H](C)CC` [Example 87] (H-Y[Aib]EGTFISDYSI[αMeL]LD[Orn]K([AEEA-AEEA-γGlu-C18 diacid])HQ[Aib]DFVE[4Pal]LLEAGPSSGAPPPS-NH2) were 6.24 and 10.27.
For the compound `CC[C@H](C)[C@H](NC(=O)[C@H](CO)NC(=O)[C@H](Cc1ccc(O)cc1)NC(=O)[C@H](CC(=O)O)NC(=O)[C@H](CO)NC(=O)[C@@H](NC(=O)[C@](C)(CC)NC(=O)[C@@H](NC(=O)CNC(=O)[C@H](CCC(=O)O)NC(=O)C(C)(C)NC(=O)[C@@H](N)Cc1ccc(O)cc1)[C@@H](C)O)[C@@H](C)CC)C(=O)N[C@@](C)(CC(C)C)C(=O)N[C@@H](CC(C)C)C(=O)N[C@@H](CC(=O)O)C(=O)N[C@@H](CCCCN)C(=O)N[C@@H](CCCCNC(=O)COCCOCCNC(=O)COCCOCCNC(=O)CC[C@H](NC(=O)CCCCCCCCCCCCCCCCCCC(=O)O)C(=O)O)C(=O)N[C@@H](Cc1c[nH]cn1)C(=O)N[C@@H](CCC(N)=O)C(=O)NC(C)(C)C(=O)N[C@@H](CC(=O)O)C(=O)N[C@@H](Cc1ccccc1)C(=O)N[C@H](C(=O)N[C@@H](CCC(=O)O)C(=O)N[C@@H](Cc1ccncc1)C(=O)N[C@@H](CC(C)C)C(=O)N[C@@H](CC(C)C)C(=O)N[C@@H](CCC(=O)O)C(=O)N[C@@H](C)C(=O)NCC(=O)N1CCC[C@H]1C(=O)N[C@@H](CO)C(=O)N[C@@H](CO)C(=O)NCC(=O)N[C@@H](C)C(=O)N1CCC[C@H]1C(=O)N1CCC[C@H]1C(=O)N1CCC[C@H]1C(=O)N[C@@H](CO)C(N)=O)C(C)C` [Example 88] (H-Y[Aib]EGT[Iva]ISDYSI[αMeL]LDKK([AEEA-AEEA-γGlu-C20 diacid])HQ[Aib]DFVE[4Pal]LLEAGPSSGAPPPS-NH2), the negative logarithm of the Ki (pKi) is 6.10 at human GcgR and 10.08 on human GIPR.
Taken in the same sequence, the figures for `CC[C@H](C)[C@H](NC(=O)[C@H](CC(C)C)NC(=O)[C@@H](NC(=O)CNC(=O)[C@H](CCC(=O)O)NC(=O)C(C)(C)NC(=O)[C@@H](N)Cc1ccc(O)cc1)[C@@H](C)O)C(=O)N[C@@H](CO)C(=O)N[C@@H](CC(=O)O)C(=O)N[C@@H](Cc1ccc(O)cc1)C(=O)N[C@@H](CO)C(=O)N[C@H](C(=O)N[C@@](C)(CC(C)C)C(=O)N[C@@H](CC(C)C)C(=O)N[C@@H](CC(=O)O)C(=O)N[C@@H](CCCCN)C(=O)N[C@@H](CCCCNC(=O)COCCOCCNC(=O)COCCOCCNC(=O)CC[C@H](NC(=O)CCCCCCCCCCCCCCCCCCC(=O)O)C(=O)O)C(=O)N[C@@H](Cc1c[nH]cn1)C(=O)N[C@@H](CCC(N)=O)C(=O)NC(C)(C)C(=O)N[C@@H](CC(=O)O)C(=O)N[C@@H](Cc1ccccc1)C(=O)N[C@H](C(=O)N[C@@H](CCC(=O)O)C(=O)N[C@@H](Cc1ccncc1)C(=O)N[C@@H](CC(C)C)C(=O)N[C@@H](CC(C)C)C(=O)N[C@@H](CCC(=O)O)C(=O)N[C@@H](C)C(=O)NCC(=O)N1CCC[C@H]1C(=O)N[C@@H](CO)C(=O)N[C@@H](CO)C(=O)NCC(=O)N[C@@H](C)C(=O)N1CCC[C@H]1C(=O)N1CCC[C@H]1C(=O)N1CCC[C@H]1C(=O)N[C@@H](CO)C(N)=O)C(C)C)[C@@H](C)CC` [Example 89] (H-Y[Aib]EGTLISDYSI[αMeL]LDKK([AEEA-AEEA-γGlu-C20 diacid])HQ[Aib]DFVE[4Pal]LLEAGPSSGAPPPS-NH2) were 6.21 and 10.14.

The record behind these values is patent US12723063B2, “GIPR-agonist compounds” (Eli Lilly and Company, priority 2019, dated 2026).
